# Results published in ChEMBL document CHEMBL1146703, “Mannopeptimycin esters and carbonates, potent antibiotic agents against drug-resistant bacteria” (2004).
# What was measured:
# Escherichia coli = assay: Antibacterial activity against Escherichia coli at </=64 ug/mL; No activity; type: functional, organism-based
# Enterococcus faecalis [1] = assay: Antibacterial activity against Enterococcus faecalis; Range is 8-16; type: functional
# Staphylococcus aureus [2] = assay: Antibacterial activity against Staphylococcus aureus; Range is 2-4; type: functional
# Enterococcus faecalis [3] = assay: Antibacterial activity against Enterococcus faecalis; Range is 4-8; type: functional
# Mus musculus = assay: Antibacterial activity against Staphylococcus aureus infection in mouse after i.v. administration (Vancomycin, ED50= 1.0 mg/kg ); type: functional; settings: route intravenous
# Staphylococcus aureus [4] = assay: Antibacterial activity against Staphylococcus aureus; Range is 1-2; type: functional
# Enterococcus faecalis [5] = assay: Antibacterial activity against Enterococcus faecalis; Range is 16-64; type: functional
# Staphylococcus aureus [6] = assay: Antibacterial activity against Staphylococcus aureus; Range is 4-8; type: functional
# Enterococcus faecalis [7] = assay: Antibacterial activity against Enterococcus faecalis; Range is 1-2; type: functional
# Staphylococcus aureus [8] = assay: Antibacterial activity against Staphylococcus aureus; Range is 0.5-1; type: functional
# Enterococcus faecalis [9] = assay: Antibacterial activity against Enterococcus faecalis; Range is 4-16; type: functional
# Staphylococcus aureus [10] = assay: Antibacterial activity against Staphylococcus aureus; Range is 0.5-2; type: functional
# Staphylococcus aureus [11] = assay: Antibacterial activity against Staphylococcus aureus; Range is 2-8; type: functional
# Enterococcus faecalis [12] = assay: Antibacterial activity against Enterococcus faecalis; Range is 1-4; type: functional
# Enterococcus faecalis [13] = assay: Antibacterial activity against Enterococcus faecalis; Range is 64->64; type: functional
# Staphylococcus aureus [14] = assay: Antibacterial activity against Staphylococcus aureus; Range is 8-16; type: functional
# Enterococcus faecalis [15] = assay: Antibacterial activity against Enterococcus faecalis; Range is 4-32; type: functional
# Staphylococcus aureus [16] = assay: Antibacterial activity against Staphylococcus aureus; type: functional
compound,measurement,setting,value
C[C@@H](c1ccccc1)[C@@H]1NC(=O)CNC(=O)[C@H](CO)NC(=O)[C@@H]([C@@H](O)[C@@H]2CNC(N)N2[C@H]2O[C@H](CO)[C@@H](O)[C@H](O)[C@@H]2O)NC(=O)[C@H]([C@@H](O)[C@@H]2CNC(N)N2)NC(=O)[C@@H](Cc2ccc(O[C@H]3O[C@H](CO)[C@@H](O[C@H]4O[C@H](COC(=O)Cc5ccccc5)[C@@H](O)[C@H](O)[C@@H]4O)[C@H](O)[C@@H]3O)cc2)NC1=O (stereo not given in full),MIC,Escherichia coli,No activity
same,MIC,Enterococcus faecalis [1],16 µg/mL
same,MIC,Staphylococcus aureus [2],4 µg/mL
CCCCCC(=O)OC[C@H]1O[C@H](O[C@H]2[C@H](O)[C@H](O)[C@@H](Oc3ccc(C[C@H]4NC(=O)[C@H]([C@@H](C)c5ccccc5)NC(=O)CNC(=O)[C@H](CO)NC(=O)[C@@H]([C@@H](O)[C@@H]5CNC(N)N5[C@H]5O[C@H](CO)[C@@H](O)[C@H](O)[C@@H]5O)NC(=O)[C@H]([C@@H](O)[C@@H]5CNC(N)N5)NC4=O)cc3)O[C@@H]2CO)[C@@H](O)[C@@H](O)[C@@H]1O (stereo not given in full),MIC,Enterococcus faecalis [3],8 µg/mL
same,MIC,Escherichia coli,No activity
same,ED50,Mus musculus,4 mg/kg
same,MIC,Staphylococcus aureus [4],2 µg/mL
C[C@@H](c1ccccc1)[C@@H]1NC(=O)CNC(=O)[C@H](CO)NC(=O)[C@@H]([C@@H](O)[C@@H]2CNC(N)N2[C@H]2O[C@H](CO)[C@@H](O)[C@H](O)[C@@H]2O)NC(=O)[C@H]([C@@H](O)[C@@H]2CNC(N)N2)NC(=O)[C@@H](Cc2ccc(O[C@H]3O[C@H](COC(=O)OCc4ccccc4)[C@@H](O[C@H]4O[C@H](CO)[C@@H](O)[C@H](O)[C@@H]4O)[C@H](O)[C@@H]3O)cc2)NC1=O (stereo not given in full),MIC,Enterococcus faecalis [5],64 µg/mL
same,MIC,Escherichia coli,No activity
same,MIC,Staphylococcus aureus [6],8 µg/mL
C[C@@H](c1ccccc1)[C@@H]1NC(=O)CNC(=O)[C@H](CO)NC(=O)[C@@H]([C@@H](O)[C@@H]2CNC(N)N2[C@H]2O[C@H](CO)[C@@H](O)[C@H](O)[C@@H]2O)NC(=O)[C@H]([C@@H](O)[C@@H]2CNC(N)N2)NC(=O)[C@@H](Cc2ccc(O[C@H]3O[C@H](CO)[C@@H](O[C@H]4O[C@H](COC(=O)C(c5ccccc5)c5ccccc5)[C@@H](O)[C@H](O)[C@@H]4O)[C@H](O)[C@@H]3O)cc2)NC1=O (stereo not given in full),MIC,Enterococcus faecalis [7],2 µg/mL
same,MIC,Escherichia coli,No activity
same,ED50,Mus musculus,0.29 mg/kg
same,MIC,Staphylococcus aureus [8],1 µg/mL
CCCCCCC(=O)OC[C@H]1O[C@H](Oc2ccc(C[C@H]3NC(=O)[C@H]([C@@H](C)c4ccccc4)NC(=O)CNC(=O)[C@H](CO)NC(=O)[C@@H]([C@@H](O)[C@@H]4CNC(N)N4[C@H]4O[C@H](CO)[C@@H](O)[C@H](O)[C@@H]4O)NC(=O)[C@H]([C@@H](O)[C@@H]4CNC(N)N4)NC3=O)cc2)[C@@H](O)[C@@H](O)[C@@H]1O[C@H]1O[C@H](CO)[C@@H](O)[C@H](O)[C@@H]1O (stereo not given in full),MIC,Enterococcus faecalis [9],16 µg/mL
same,MIC,Escherichia coli,No activity
same,MIC,Staphylococcus aureus [10],2 µg/mL
C[C@@H](c1ccccc1)[C@@H]1NC(=O)CNC(=O)[C@H](CO)NC(=O)[C@@H]([C@@H](O)[C@@H]2CNC(N)N2[C@H]2O[C@H](CO)[C@@H](O)[C@H](O)[C@@H]2O)NC(=O)[C@H]([C@@H](O)[C@@H]2CNC(N)N2)NC(=O)[C@@H](Cc2ccc(O[C@H]3O[C@H](CO)[C@@H](O[C@H]4O[C@H](COC(=O)OCc5ccccc5)[C@@H](O)[C@H](O)[C@@H]4O)[C@H](O)[C@@H]3O)cc2)NC1=O (stereo not given in full),MIC,Escherichia coli,No activity
same,MIC,Enterococcus faecalis [1],16 µg/mL
same,MIC,Staphylococcus aureus [11],8 µg/mL
CCCCCCC(=O)OC[C@H]1O[C@H](O[C@H]2[C@H](O)[C@H](O)[C@@H](Oc3ccc(C[C@H]4NC(=O)[C@H]([C@@H](C)c5ccccc5)NC(=O)CNC(=O)[C@H](CO)NC(=O)[C@@H]([C@@H](O)[C@@H]5CNC(N)N5[C@H]5O[C@H](CO)[C@@H](O)[C@H](O)[C@@H]5O)NC(=O)[C@H]([C@@H](O)[C@@H]5CNC(N)N5)NC4=O)cc3)O[C@@H]2CO)[C@@H](O)[C@@H](O)[C@@H]1O (stereo not given in full),MIC,Enterococcus faecalis [12],4 µg/mL
same,MIC,Escherichia coli,No activity
same,ED50,Mus musculus,4 mg/kg
same,MIC,Staphylococcus aureus [8],1 µg/mL
C[C@@H](c1ccccc1)[C@@H]1NC(=O)CNC(=O)[C@H](CO)NC(=O)[C@@H]([C@@H](O)[C@@H]2CNC(N)N2[C@H]2O[C@H](CO)[C@@H](O)[C@H](O)[C@@H]2O)NC(=O)[C@H]([C@@H](O)[C@@H]2CNC(N)N2)NC(=O)[C@@H](Cc2ccc(O[C@H]3O[C@H](COC(=O)Cc4ccccc4)[C@@H](O[C@H]4O[C@H](CO)[C@@H](O)[C@H](O)[C@@H]4O)[C@H](O)[C@@H]3O)cc2)NC1=O (stereo not given in full),MIC,Escherichia coli,No activity
same,MIC,Enterococcus faecalis [13],64 µg/mL
same,MIC,Staphylococcus aureus [14],16 µg/mL
CCCC(CCC)C(=O)OC[C@H]1O[C@H](Oc2ccc(C[C@H]3NC(=O)[C@H]([C@@H](C)c4ccccc4)NC(=O)CNC(=O)[C@H](CO)NC(=O)[C@@H]([C@@H](O)[C@@H]4CNC(N)N4[C@H]4O[C@H](CO)[C@@H](O)[C@H](O)[C@@H]4O)NC(=O)[C@H]([C@@H](O)[C@@H]4CNC(N)N4)NC3=O)cc2)[C@@H](O)[C@@H](O)[C@@H]1O[C@H]1O[C@H](CO)[C@@H](O)[C@H](O)[C@@H]1O (stereo not given in full),MIC,Enterococcus faecalis [15],32 µg/mL
same,MIC,Escherichia coli,No activity
same,MIC,Staphylococcus aureus [16],4 µg/mL
